The values that follow come from patent US20130131018A1, “SUBSTITUTED ISOQUINOLINES AND THEIR USE AS TUBULIN POLYMERIZATION INHIBITORS” (Exonhit S.A., priority 2010, published 2013).

Molecules are shown by their SMILES. Structures can show the parent of a compound that is named as a salt. Where two headings read alike, the source gives them in different places.

For experiment [1], the target named is T1, purified tubulin (Sus scrofa, UniProt P02550+P02554).
T1 construct: purchased Cytoskeleton #BK006P
The experiment in a line: Tubulin polymerisation assay (CytoDYNAMIX Screen kit, absorbance at 340 nm). In kind it is biochemical. To be noted: for inhibition at 5 µM: 5 μM compound, 4 mg/ml tubulin, read-out: % Inhibition of tubulin polymerization at 5 μM; for IC50: tubulin polymerization. The method, then:
The polymerization of purified tubulin was monitored spectrophotometrically by the change in absorbance at 340 nm using the CytoDYNAMIX Screen kit (#BK006P, Cytoskeleton) according to the instructions of the manufacturer. […] The absorbance was measured at 1 minute intervals for 60 minutes. The test compound was added to a 4 mg/ml tubulin solution containing 10% glycerol and 1 mM GTP in Buffer 1 (Buffer 1: 80 mM PIPES; 2 mM MgCl2; 0.5 mM EGTA, pH 6.9). Increased absorbance indicates increase in microtubule formation from tubulin heterodimers.

Experiment [2] relates to K562 cell line. The experiment in a line: MTT assay: cytotoxicity against the K562 cell line. In kind it is cell-based. To be noted: Homo sapiens, K562 cells, 72 h, growth inhibition. The method, then: Assessment of Cell Viability via MTT Assay: Cytotoxicity of compounds against the K562 cell line was assessed using the [3-(4,5-dimethylthiazol-2-yl)-2,5-diphenyl tetrazolium bromide] (MTT) assay. Fifteen thousand tumor cells were seeded into wells of flat-bottomed 96-well plates. An amount of 2 μL of a dilution series of each compound dissolved in DMSO was added to 198 μL of appropriate growth medium at three replicates per concentration and the plates were incubated in a 5% CO2 incubator at 37° C. After 72 h, the number of metabolically active cells was determined by MTT assay. Absorbance of each well was measured at 550 nm on a Tecan Sunrise reader. Dose-response curves for growth inhibition were generated as a percentage of untreated control. IC50 was determined by nonlinear regression (Prism, Graph Pad Software, Inc.).

Experiment [3] deals with Endothelial cells (HUVEC). The experiment is described as follows: Neovessels formation inhibition (capillary tube formation on Matrigel). In kind it is cell-based. To be noted: Homo sapiens, HUVEC on Matrigel, compounds overnight. The method, then: The capability of compounds to inhibit the formation of capillaries was evaluated in vitro. Twenty thousand Endothelial cells (HUVEC) were placed on a Matrigel matrix and allowed to form capillary tubes in the presence or absence of the compounds overnight. The cells were stained with calcein AM, and the effect of the compounds on capillary tube formation was assessed using an inverted fluorescent microscope (Nikon). The reference compound used in this assay AVE-8063 is 3-amino-deoxycombretastatin A-4.

In experiment [4] the test system is HUVEC. The experiment in a line: Pre-established vessels disruption (capillary tubes on Matrigel). In kind it is cell-based. To be noted: Homo sapiens, HUVEC tubes formed 5 hours, then compounds overnight. The method, then: To explore the effect of the compounds on pre-established vasculature, twenty thousand cells (HUVEC) were seeded and incubated over Matrigel for 5 hours to allow the capillary tubes to form. Then, compounds were added and incubated overnight. The disappearance of existing vasculature was monitored with fluorescent microscopy.

Setting [5] is: read-out: Neovessels Formation Inhibition Number of Branch Junctions IC50.
Where [6] appears, read: read-out: Neovessels Formation Inhibition Total Tubule Length IC50.
[7] abbreviates: read-out: Pre-established Vessels Disruption Number of Branch Junctions IC50.
The mark [8] stands for this setting: read-out: Pre-established Vessels Disruption Total Tubule Length IC50.

T1 sequence (P02554 whole entry): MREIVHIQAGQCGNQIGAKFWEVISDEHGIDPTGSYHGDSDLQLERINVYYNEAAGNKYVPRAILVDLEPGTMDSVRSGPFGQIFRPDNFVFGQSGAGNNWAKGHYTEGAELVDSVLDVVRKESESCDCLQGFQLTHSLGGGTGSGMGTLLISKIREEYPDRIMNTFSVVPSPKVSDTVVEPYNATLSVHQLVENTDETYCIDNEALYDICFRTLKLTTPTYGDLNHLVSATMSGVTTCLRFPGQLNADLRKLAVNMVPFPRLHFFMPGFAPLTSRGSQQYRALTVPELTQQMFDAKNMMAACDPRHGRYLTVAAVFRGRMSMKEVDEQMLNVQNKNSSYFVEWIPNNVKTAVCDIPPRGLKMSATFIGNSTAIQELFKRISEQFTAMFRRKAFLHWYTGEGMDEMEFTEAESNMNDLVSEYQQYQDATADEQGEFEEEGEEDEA
T1 sequence (P02550 whole entry): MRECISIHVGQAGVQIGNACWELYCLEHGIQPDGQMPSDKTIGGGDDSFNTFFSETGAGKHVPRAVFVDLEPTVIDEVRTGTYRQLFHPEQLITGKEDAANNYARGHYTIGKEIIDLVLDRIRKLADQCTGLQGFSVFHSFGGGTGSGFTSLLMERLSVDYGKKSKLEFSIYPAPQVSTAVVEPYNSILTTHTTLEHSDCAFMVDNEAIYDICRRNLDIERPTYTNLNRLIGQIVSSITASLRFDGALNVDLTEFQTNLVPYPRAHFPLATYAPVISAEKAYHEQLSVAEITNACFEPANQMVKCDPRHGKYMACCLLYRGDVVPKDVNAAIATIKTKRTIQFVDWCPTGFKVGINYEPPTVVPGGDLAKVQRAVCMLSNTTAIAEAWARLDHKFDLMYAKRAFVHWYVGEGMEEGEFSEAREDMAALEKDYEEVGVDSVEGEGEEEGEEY

On to `CCOc1ccc2c(Cc3cc(OC)c(OCC(C)C)c(OC)c3)cncc2c1N` [Compound 31, 4-(4-Isobutoxy-3,5-dimethoxybenzyl)-7-ethoxyisoquinolin-8-amine dihydrochloride], for which the inhibition at 5 µM in experiment [1] came to 55.4%. The IC50 in experiment [1] amounted to 1540 nM; in experiment [2] it was 37 nM.
On to `CCCOc1c(OC)cc(Cc2cncc3c(O)c(OCC)ccc23)cc1OC` [Compound 19, 4-(3,5-Dimethoxy-4-propoxybenzyl)-7-ethoxyisoquinolin-8-ol hydrochloride], for which the inhibition at 5 µM in experiment [1] was found to be 61.9%. Besides, the IC50 in experiment [1] was found to be 1850 nM; in experiment [2], 21.5 nM; in experiment [3] (setting [5]), 14.4 nM; in experiment [3] (setting [6]), 23 nM; in experiment [4] (setting [7]), 6.33 nM; in experiment [4] (setting [8]), 15.9 nM.
Take `CCOc1ccc2c(C(=O)c3cc(OC)c(OC)c(OC)c3)cncc2c1` [Compound 40, (7-Ethoxyisoquinolin-4-yl)(3,4,5-trimethoxyphenyl)methanone hydrochloride]: in experiment [1], the inhibition at 5 µM was 58.8%. The IC50 was determined as 1130 nM in experiment [1]; 19.6 nM in experiment [2]; 8.2 nM in experiment [3] (setting [5]); 12.9 nM in experiment [3] (setting [6]); 32.8 nM in experiment [4] (setting [7]); 53.4 nM in experiment [4] (setting [8]).
As to `CCOc1ccc2c(Cc3cc(OC)c(OCC)c(OC)c3)cncc2c1N` [Compound 18, 4-(4-Ethoxy-3,5-dimethoxybenzyl)-7-ethoxyisoquinolin-8-amine dihydrochloride], the inhibition at 5 µM in experiment [1] was 61.4%. Besides, the 50% inhibitory concentration (IC50) stood at 990 nM in experiment [1]; 13.2 nM in experiment [2]; 13 nM in experiment [3] (setting [5]); 18.7 nM in experiment [3] (setting [6]); 17.8 nM in experiment [4] (setting [7]); 32.1 nM in experiment [4] (setting [8]).
As to `CCCCOc1c(OC)cc(Cc2cncc3c(O)c(OCC)ccc23)cc1OC` [Compound 38, 4-(4-Butoxy-3,5-dimethoxybenzyl)-7-ethoxyisoquinolin-8-ol hydrochloride], in experiment [1], the inhibition at 5 µM amounted to 67.4% and the IC50 is 1110 nM. 30.4 nM corresponded to half-maximal inhibition in experiment [2] (IC50).
On to `CCOc1ccc2c(C(=O)c3cc(OC)c(OCC)c(OC)c3)cncc2c1N` [Compound 58, (8-amino-7-ethoxyisoquinolin-4-yl)(4-ethoxy-3,5-dimethoxyphenyl)methanone hydrochloride], for which, in experiment [1], the inhibition at 5 µM was determined as 38.2%. Further, the IC50 in experiment [1] came to 3490 nM; in experiment [2], 1.23 nM; in experiment [3] (setting [5]) it was 0.53 nM; in experiment [3] (setting [6]) it was 0.59 nM; in experiment [4] (setting [7]) it was 0.99 nM; in experiment [4] (setting [8]) it was 1.36 nM.
Regarding `CCOc1ccc2c(C(=O)c3cc(OC)c(OC)c(OC)c3)cncc2c1NS(N)(=O)=O` [Compound 105, N-(7-Ethoxy-4-(3,4,5-trimethoxybenzoyl)isoquinolin-8-yl)sulfamide hydrochloride], the inhibition at 5 µM in experiment [1] turned out to be 35%. Further, the IC50 was found to be 4.18 nM in experiment [2]; 5.71 nM in experiment [3] (setting [5]); 8.06 nM in experiment [3] (setting [6]); 9.27 nM in experiment [4] (setting [7]); 9.3 nM in experiment [4] (setting [8]).
As to `CCOc1ccc2c(Cc3cc(OC)c(OCCC(C)C)c(OC)c3)cncc2c1O` [Compound 33, 7-Ethoxy-4-(4-(isopentyloxy)-3,5-dimethoxybenzyl)isoquinolin-8-ol hydrochloride], in experiment [1], the inhibition at 5 µM came to 59% and the IC50 was found to be 1310 nM. In addition, the concentration for half-maximal inhibition (IC50) in experiment [2] was 160 nM.
As for `CC[C@]1(O)C[C@@H]2CN(CCc3c([nH]c4ccccc34)[C@@](C(=O)OC)(c3cc4c(cc3OC)N(C)[C@H]3[C@@](O)(C(=O)OC)[C@H](OC(C)=O)[C@]5(CC)C=CCN6CC[C@]43[C@@H]65)C2)C1` [Vinblastine, reference compound], the inhibition at 5 µM in experiment [1] turned out to be 77.7%. Moreover, the IC50 in experiment [1] worked out at 1050 nM; in experiment [2], 3.66 nM; in experiment [3] (setting [5]), 1.55 nM; in experiment [3] (setting [6]), 3.44 nM; in experiment [4] (setting [7]), 2.09 nM; in experiment [4] (setting [8]) it was 5.39 nM.
Regarding `COc1ccc(/C=C\c2cc(OC)c(OC)c(OC)c2)cc1O` [Combretastatin, reference compound], the inhibition at 5 µM in experiment [1] came out at 68.9%. This compound had an IC50 in experiment [2] of 2.07 nM.
Consider `CCCOc1c(OC)cc(C(=O)c2cncc3c(OC(C)=O)c(OCC)ccc23)cc1OC` [Compound 65, 4-(3,5-Dimethoxy-4-propoxybenzoyl)-7-ethoxyisoquinolin-8-yl acetate], for which the inhibition at 5 µM in experiment [1] turned out to be 13%. In addition, the IC50 is 3.81 nM in experiment [2]; 2.88 nM in experiment [3] (setting [5]); 4.23 nM in experiment [3] (setting [6]); 3.36 nM in experiment [4] (setting [7]); 9.92 nM in experiment [4] (setting [8]).
On to `CCOc1ccc2c(C(=O)c3cc(OC)c(OC)c(OC)c3)cncc2c1N` [Compound 29, (8-Amino-7-ethoxyisoquinolin-4-yl)(3,4,5-trimethoxyphenyl)methanone hydrochloride], for which the inhibition at 5 µM in experiment [1] is 71.3%. Moreover, the 50% inhibitory concentration (IC50) in experiment [1] was 880 nM; in experiment [2] it was 1.64 nM; in experiment [3] (setting [5]), 1.04 nM; in experiment [3] (setting [6]), 1.47 nM; in experiment [4] (setting [7]), 1.78 nM; in experiment [4] (setting [8]) it was 2.26 nM.
Turning to `CCOc1ccc2c(Cc3cc(OC)c(OCC(F)(F)F)c(OC)c3)cncc2c1O` [Compound 30, 4-(3,5-Dimethoxy-4-(2,2,2-trifluoroethoxy)benzyl)-7-ethoxyisoquinolin-8-ol hydrochloride], in experiment [1], the inhibition at 5 µM amounted to 21%. The compound also gave an IC50 in experiment [2] of 63.8 nM.
`CCOc1ccc2c(Cc3cc(OC)c(OCC)c(OC)c3)cncc2c1O` [Compound 14, 4-(4-Ethoxy-3,5-dimethoxybenzyl)-7-ethoxyisoquinolin-8-ol hydrochloride]: the IC50 in experiment [1] was 1050 nM; in experiment [2], 30.3 nM; in experiment [3] (setting [5]), 31.1 nM; in experiment [3] (setting [6]) it was 39.5 nM.
With `CCOc1ccc2c(Cc3cc(OC)c(OCC(C)C)c(OC)c3)cncc2c1O` [Compound 20, 4-(4-Isobutoxy-3,5-dimethoxybenzyl)-7-ethoxyisoquinolin-8-ol hydrochloride], the inhibition at 5 µM in experiment [1] was 56.9%. In addition, the IC50 is 1520 nM in experiment [1]; 20.8 nM in experiment [2]; 24.9 nM in experiment [3] (setting [5]); 31.9 nM in experiment [3] (setting [6]); 22.3 nM in experiment [4] (setting [7]); 31.7 nM in experiment [4] (setting [8]).
For `COc1ccc2c(C(=O)c3cc(OC)c(OC)c(OC)c3)cncc2c1` [Compound 28, (7-Methoxyisoquinolin-4-yl)(3,4,5-trimethoxyphenyl)methanone hydrochloride], in experiment [1], the inhibition at 5 µM was 44.5%. This compound also showed an IC50 in experiment [2] of 42.1 nM.
With `COc1ccc(/C=C\c2cc(OC)c(OC)c(OC)c2)cc1NC(=O)[C@@H](N)CO` [AVE8062, reference compound], the inhibition at 5 µM in experiment [1] came out at 59.8%. Further, the 50% inhibitory concentration (IC50) came to 1790 nM in experiment [1]; 7.78 nM in experiment [2]; 13.9 nM in experiment [3] (setting [5]); 15.4 nM in experiment [3] (setting [6]); 32.5 nM in experiment [4] (setting [7]); 52.9 nM in experiment [4] (setting [8]).
Regarding `CCOc1ccc2c(C(=O)c3cc(OC)c(OCC)c(OC)c3)cncc2c1O` [Compound 56, (4-Ethoxy-3,5-dimethoxyphenyl)(7-ethoxy-8-hydroxyisoquinolin-4-yl)methanone hydrochloride], the inhibition at 5 µM in experiment [1] stood at 65.1%. Moreover, the 50% inhibitory concentration (IC50) in experiment [1] came out at 1940 nM; in experiment [2] it was 4.39 nM; in experiment [3] (setting [5]) it was 10.7 nM; in experiment [3] (setting [6]), 12.2 nM; in experiment [4] (setting [7]) it was 14.4 nM; in experiment [4] (setting [8]) it was 16.1 nM.
Regarding `CCOc1cc(Cc2cncc3c(O)c(OCC)ccc23)cc(OC)c1OC` [Compound 15, 4-(3-Ethoxy-4,5-dimethoxybenzyl)-7-ethoxyisoquinolin-8-ol hydrochloride], in experiment [1], the inhibition at 5 µM was 69% and 970 nM corresponded to half-maximal inhibition (IC50). In experiment [2], the IC50 stood at 105 nM.
Take `CCCOc1c(OC)cc(C(=O)c2cncc3c(N)c(OCC)ccc23)cc1OC` [Compound 66, (8-Amino-7-ethoxyisoquinolin-4-yl)(3,5-dimethoxy-4-propoxyphenyl)methanone hydrochloride]: the IC50 in experiment [2] is 4.27 nM; in experiment [3] (setting [5]), 2.23 nM; in experiment [3] (setting [6]) it was 3.58 nM; in experiment [4] (setting [7]), 3.76 nM; in experiment [4] (setting [8]) it was 5.47 nM.

In general, inhibition refers to the percentage by which the read-out fell short of the control. As a reminder, the IC50 is the concentration that inhibits the measured activity by half.
